These results are taken from patent US11639353B2, “Cyclobutanes- and azetidine-containing mono and spirocyclic compounds as αV integrin inhibitors” (BRISTOL-MYERS SQUIBB COMPANY, priority 2016, dated 2023).

T1 sequence (P06756 31-992 limits assumed): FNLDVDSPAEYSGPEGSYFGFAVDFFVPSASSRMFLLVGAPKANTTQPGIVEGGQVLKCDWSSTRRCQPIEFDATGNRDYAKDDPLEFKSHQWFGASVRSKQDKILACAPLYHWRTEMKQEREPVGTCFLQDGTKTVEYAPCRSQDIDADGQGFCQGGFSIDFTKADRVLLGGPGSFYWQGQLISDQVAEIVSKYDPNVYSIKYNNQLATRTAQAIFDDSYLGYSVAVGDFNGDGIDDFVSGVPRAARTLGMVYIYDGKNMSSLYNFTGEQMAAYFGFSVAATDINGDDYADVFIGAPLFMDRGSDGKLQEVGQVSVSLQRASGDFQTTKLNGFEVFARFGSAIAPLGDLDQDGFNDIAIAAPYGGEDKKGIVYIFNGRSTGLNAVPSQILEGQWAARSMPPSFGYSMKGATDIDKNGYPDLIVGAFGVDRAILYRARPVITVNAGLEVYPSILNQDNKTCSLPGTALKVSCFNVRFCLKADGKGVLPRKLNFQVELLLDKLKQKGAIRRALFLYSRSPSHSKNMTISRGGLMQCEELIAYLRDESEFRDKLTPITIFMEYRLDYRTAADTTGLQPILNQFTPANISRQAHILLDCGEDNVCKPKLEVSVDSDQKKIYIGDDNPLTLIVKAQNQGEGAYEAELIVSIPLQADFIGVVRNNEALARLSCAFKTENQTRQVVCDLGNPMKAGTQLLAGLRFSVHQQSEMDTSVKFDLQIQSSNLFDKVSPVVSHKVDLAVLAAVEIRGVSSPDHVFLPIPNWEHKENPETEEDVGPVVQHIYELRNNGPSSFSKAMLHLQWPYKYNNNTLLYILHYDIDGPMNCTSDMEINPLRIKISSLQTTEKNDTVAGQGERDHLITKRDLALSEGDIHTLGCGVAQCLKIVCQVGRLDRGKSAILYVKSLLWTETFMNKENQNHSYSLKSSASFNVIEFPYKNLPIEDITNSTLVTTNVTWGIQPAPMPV
T1 sequence (P18564 22-707 limits assumed): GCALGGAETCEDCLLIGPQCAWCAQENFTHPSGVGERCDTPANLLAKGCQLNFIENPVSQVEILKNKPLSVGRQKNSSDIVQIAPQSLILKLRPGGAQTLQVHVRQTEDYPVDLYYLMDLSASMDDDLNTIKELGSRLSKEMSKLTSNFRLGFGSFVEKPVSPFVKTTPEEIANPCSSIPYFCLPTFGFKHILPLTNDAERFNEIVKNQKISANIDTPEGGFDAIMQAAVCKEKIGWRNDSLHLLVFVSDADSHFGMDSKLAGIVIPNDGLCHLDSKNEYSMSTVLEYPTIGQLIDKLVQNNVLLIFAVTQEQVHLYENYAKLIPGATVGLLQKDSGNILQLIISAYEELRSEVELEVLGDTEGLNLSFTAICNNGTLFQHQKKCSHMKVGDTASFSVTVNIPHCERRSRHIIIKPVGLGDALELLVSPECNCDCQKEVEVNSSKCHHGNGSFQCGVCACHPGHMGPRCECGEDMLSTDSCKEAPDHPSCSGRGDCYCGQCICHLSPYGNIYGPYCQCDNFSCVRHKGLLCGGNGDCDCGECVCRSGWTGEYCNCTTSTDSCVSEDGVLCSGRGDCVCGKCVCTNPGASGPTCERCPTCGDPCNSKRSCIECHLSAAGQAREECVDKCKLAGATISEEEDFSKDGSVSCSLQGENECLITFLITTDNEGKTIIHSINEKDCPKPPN

This assay has as its target T1, human αVβ6 (Homo sapiens, UniProt P06756+P18564).
T1 construct: purchased R & D systems 3817-AV
The assay is described as follows: human αVβ6 HTRF binding assay. The following applies: alternatively SPA-based assay. The gist of the method: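 Biotinylated recombinant human αVβ6 (1.25 nM final) incubated with FITC-fibronectin (5 nM final) 1 h at RT, then streptavidin-terbium (0.625 nM final) added and left overnight at RT in the dark before HTRF reading. Buffer: 20 mM Tris pH 7.4, 1 mM MgCl2, 1 mM MnCl2, 0.01% Tween 20, 0.01% BSA.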
(In general: In TR-FRET formats the signal depends on donor and acceptor labels being close together.)
Usually IC50 stands for the concentration at which inhibition is half-maximal. Take `O=C(O)C[C@@H](c1cc(F)cc(F)c1)N1CC(CCCCc2ccc3c(n2)NCCC3)C1=O` (some centres unmarked) [Example 71]: the IC50 was 1.5 nM.
Compound `COc1ccc([C@H](CC(=O)O)NC(=O)C2(F)CN(CCc3ccc4c(n3)NCCC4)C2)cc1F` [Example 44] returned a half-maximal inhibitory concentration (IC50) of 0.6 nM.
Consider `COc1ncc([C@H](CC(=O)O)NC(=O)N2CC(CCc3ccc4c(n3)NCCC4)C2)cn1` [Example 123], for which the IC50 stood at 4.3 nM.
`COc1ccc(C(CC(=O)O)N2CC3(CC(Cc4ccc5c(n4)NCCC5)C3)C2)cn1` (centres unmarked) [Example 208, 3-(6-methoxypyridin-3-yl)-3-(6-((5,6,7,8-tetrahydro-1,8-naphthyridin-2-yl)methyl)-2-azaspiro[3.3]heptan-2-yl)propanoic acid] gave a half-maximal inhibitory concentration (IC50) of 2.4 nM.
The same measure for `O=C(O)CC(NC(=O)[C@H]1C[C@H](CCc2ccc3c(n2)NCCC3)C1)c1cnc(C(F)(F)F)nc1` (single isomer, unassigned) [Example 194, 3-(trans-3-(2-(5,6,7,8-Tetrahydro-1,8-naphthyridin-2-yl)ethyl)cyclobutane-1-carboxamido)-3-(2-(trifluoromethyl)pyrimidin-5-yl)propanoic acid]: 21 nM; for `COc1ncc([C@H](CC(=O)O)N2CC(CCCCc3ccc4c(n3)NCCC4)C2)cn1` [Example 156]: 2.9 nM.
The same measure for `COc1ccc([C@H](CC(=O)O)N2CC(CCCc3ccc4c(n3)NCCC4)C2)cc1F` [Example 168, (S)-3-(3-Fluoro-4-methoxyphenyl)-3-(3-(3-(5,6,7,8-tetrahydro-1,8-naphthyridin-2-yl)propyl)azetidin-1-yl)propanoic acid]: 2 nM; for `COc1ccc(C(CC(=O)O)C2CC(CCCCc3ccc4c(n3)NCCC4)C2)cn1` (single isomer, unassigned; diastereomer a) [Example 139, 3-(6-Methoxypyridin-3-yl)-3-(3-(4-(5,6,7,8-tetrahydro-1,8-naphthyridin-2-yl)butyl)cyclobutyl)propanoic acid (Diastereomer A)]: 26 nM.
The same measure for `COc1ccc(C(NC(=O)C2CC(CCc3ccc4c(n3)NCCC4)C2)C(C)(C)C(=O)O)cn1` (single isomer, unassigned) [Example 189, 3-(6-methoxypyridin-3-yl)-2,2-dimethyl-3-(3-(2-(5,6,7,8-tetrahydro-1,8-naphthyridin-2-yl)ethyl)cyclobutane-1-carboxamido)propanoic acid]: 5000 nM; for `Cc1cc(C)c(S(=O)(=O)N[C@@H](CNC(=O)C2CC3(CC(NC(=O)CCc4ccc5c(n4)NCCC5)C3)C2)C(=O)O)c(C)c1` (some centres unmarked) [Example 28]: 380 nM; for `COc1ccc(C(CC(=O)O)CC(=O)N2CC(CCc3ccc4c(n3)NCCC4)C2)cc1F` (centres unmarked) [Example 67]: 7.1 nM.
In turn, `O=C(O)CC(NC(=O)[C@H]1C[C@H](CCc2ccc3c(n2)NCCC3)C1)c1cnc(C(F)(F)F)nc1` (single isomer, unassigned) [Example 193, 3-(trans-3-(2-(5,6,7,8-Tetrahydro-1,8-naphthyridin-2-yl)ethyl)cyclobutane-1-carboxamido)-3-(2-(trifluoromethyl)pyrimidin-5-yl)propanoic acid] registered an IC50 of 5.7 nM.
`O=C(O)CC(c1cnc2ccccc2c1)C1CN(CCCCc2ccc3c(n2)NCCC3)C1` (centres unmarked) [Example 142] displayed an IC50 of 9.9 nM.
`CCOC(=O)C[C@H](NC(=O)C1CC2(C1)CN(CCc1ccc3c(n1)NCCC3)C2)c1cc(Cl)cc(Cl)c1` [Example 49] had an IC50 of 480 nM.
As to `O=C(O)C[C@@H](c1ccc2c(c1)CCO2)N1CC(CCCCc2ccc3c(n2)NCCC3)C1=O` (some centres unmarked) [Example 111], the concentration for half-maximal inhibition (IC50) stood at 6 nM.
With `COc1ccc(C(CC(=O)O)C2CC(CCCCc3ccc4c(n3)NCCC4)C2)cn1` (centres unmarked) [Example 138, 3-(6-Methoxypyridin-3-yl)-3-(3-(4-(5,6,7,8-tetrahydro-1,8-naphthyridin-2-yl)butyl)cyclobutyl)propanoic acid], the concentration for half-maximal inhibition (IC50) amounted to 3.2 nM.
With `COc1ccc([C@H](CC(=O)O)NC(=O)C2CN(CCc3ccc4c(n3)NCCC4)C2)cc1F` [Example 42], the half-inhibitory concentration (IC50) amounted to 0.4 nM.
